In assay [1] the test system is α-synuclein protein. Kind of assay: α-synuclein-specific ELISA in SK-N-MC cells. Type of assay: cell-based, human. The procedure:
Protein lysis buffer containing 320 mM sucrose, 5 mM NaF, 1 mM Na3VO4, 10 mM Tris (pH 7.4), 1 mM EGTA, and 1 mM EDTA was used for mice brain tissue lysis. 100 μL of cold extraction buffer was added to each sample and homogenized in a dounce homogenizer. After incubating on ice for 10 minutes post-homogenization, samples were centrifuged at 10,000 rpm at 4° C. for 10 minutes. Supernatant was transferred to new tubes and centrifuged again at 10,000 rpm at 4° C. for additional 10 minutes. The final supernatant was transferred to new tubes and protein estimation was performed by ELISA. Total protein from rodent primary cells, human neuroblastoma cells and iPSC-derived neuronal cells was extracted using lysis buffer containing 1×PBS and 0.5% NP-40. Cells were washed once with cold PBS and lysed by adding cold lysis buffer. The cells were collected by scraping, then incubated for 30 minutes by rotating at 4° C. The samples were centrifuged at 14,000 rpm at 4° C. for 10 minutes and supernatant was transferred to new tubes. Total protein concentrations were determined by BCA assay (Thermo Scientific) according to the manufacturer's instructions. Total α-synuclein was quantified using an α-synuclein-specific sandwich ELISA.
(§1) An α-synuclein-specific Meso Scale Discovery (MSD) ELISA assay (described in Ref. (11)) was utilized for endogenous α-synuclein protein measurement. […] After samples were emptied and plate washed 3 times with TBS-T, sulfo-tagged SOY1 mAb (detection Ab) (generated using Sulfo-Tag-NHS-Ester (MSD) diluted in blocking buffer (6.7 ng/μl), was added to the plate (30 μl volumes/well) and shaken for 1 hour at room temperature. Following 3 washes, MSD Read (2×, diluted in ultrapure water) buffer was added and the plates were immediately measured using a MSD Sector 2400 imager. For confirmatory studies, an second α-synuclein-specific ELISA implementation was used employing a different, extensively published anti-α-synuclein detection antibody (Syn-1 mAb) and a different anti-α-synuclein capture antibody (1H9, courtesy Dr. Selkoe).
For orientation: In an ELISA, binding on a coated surface is turned into a signal by an enzyme label.

A further assay has as its system SNCA mRNA. Description: endogenous SNCA mRNA expression in SK-N-MC neuroblastoma cells (screening, replication, confirmation; qPCR). Type of assay: cell-based, human. The protocol:
Human neuroblastoma SK-N-MC cells were acquired from American Type Culture Collection (ATCC). Cells were cultured at 37° C. in 5% CO2 in DMEM/F12 supplemented with 10% fetal bovine serum (FBS) and 100 units per ml penicillin and streptomycin. The drug library was obtained from the Laboratory for Drug Discovery in Neurodegeneration (LDDN), Harvard NeuroDiscovery Center, Boston, Mass. The drug library consisted of approximately 1,126 small molecules. About 586 of the compounds were from Prestwick Chemical's (Illkirch, France) library, a unique collection of mostly off-patent small organic molecules, 90% being marketed drugs and 10% bioactive alkaloids or related substances. About 400 compounds were from the SPECS collection (available on the world wide web at.specs.net). 140 compounds generated in house by the LDDN were also included in the library. Compounds for the screening were stored as DMSO stocks. All drugs used for Confirmation Assay were purchased from Sigma (St. Louis, Mo.).
Approximately 2×10^4low passage SK-N-MC cells were seeded per well in 384-well cell culture plates for 24 hours. Compounds were then transferred into each well (final concentration 1 μM) by using a BioMekFX (Beckman Coulter) equipped with a 384-channel pipetting head. After 48 hours in cell culture incubator, cells were washed once in cold phosphate-buffered saline (PBS) by using BioTek ELx405 select CW plate washer and then lysed at room temperature (22-24° C.) with lysis buffer (Applied Biosystems) using the Cell-to-CT procedures according to the manufacturer's instructions (Applied Biosystems). After 5 min, lysis was terminated by incubation with stop solution (Applied Biosystems). 11 μL of each lysate were transferred to 384-well plates for RT in a total volume of 25 μl. 4 μL of RT reaction were then transferred to new 384-well plates for qPCR.
Using the Cell-to-CT kit (Applied Biosystems) we performed expression analysis directly from SK-N-MC neuroblastoma cells cultured in 384-well plates through in situ cDNA synthesis. In this miniaturized assay, high copy numbers of SNCA and of endogenous controls were detected as indicated by raw cycle threshold values of 25.11±0.02 (mean CT value±SEM) and 20.2±0.02 for SNCA and Ubiquitin C (UBC), respectively. Technical variation (using identical cDNA loaded in multiple wells) and biological variation (cDNA synthesized in situ in each of 384 wells of cultured SK-N-MC cells treated with DMSO) were low, with coefficients of variation of 1% and 5.2% respectively. At least ten DMSO-treated controls were included on each 384-well plate as negative external control and calibrator. An equal amount of cDNA derived from Universal Reference RNA was spotted on all plates as plate-to-plate control. Control reactions lacking template or reverse transcription were assayed for contamination with genomic DNA.
41 compounds were forwarded into the Replication Assay. For each compound eight wells were treated with drug and compared to eight wells treated with DMSO alone. The Cell-to-CT procedure was employed using two new reference genes, ribosomal protein L13 (RPL13) and glucuronidase beta (GUSB) (instead of UBC) to control for input RNA. […] 10 compounds met these criteria and were forwarded from the Replication into the Confirmation Assay.
The ten forwarded compounds were used in the Confirmation Assay. For each compound ten wells were treated with drug and compared to ten wells treated with DMSO alone. RNA was extracted using TRIzol® following the manufacturers protocol (Life Technologies). Freshly ordered compounds were used. […] Six compounds met these criteria and were forwarded from the Confirmation Assay to the ELISA Assay stage (see below).
Total RNA from flash-frozen mice brain tissue, rodent primary cells, human neuroblastoma cells and iPSC-derived neuronal cells was isolated using TRIzol® (Life Technologies) following the manufacturer's protocol. […]
(In general: Real-time PCR tracks product formation cycle by cycle.)

Assay [2] deals with α-synuclein protein. Description: α-synuclein protein in rat primary cortical neurons (ELISA). Type of assay: cell-based. The conditions noted are these: metaproterenol 5 μM, clenbuterol 20 μM, salbutamol 10 μM, 72 hours. The procedure:
Primary cortical cultures were generated from E18 Sprague-Dawley rat embryos. The cortical region was dissected out in Hank's Balanced Salt Solution buffered with Hepes and dissociated with 0.125% trypsin (Invitrogen) for 17 min at 37 ° C., followed by trituration. Dissociated cells were plated at a density of 5×10^5 cells/well or 2.5×10^5 cells/well in 12-well or 24-well plates, respectively precoated with poly-D lysine (100 μg/mL). The cells were cultured in Neurobasal medium with B-27 supplement (Invitrogen) and glutamax and gentamycin. Half of the medium was changed every 4 days. Cortical neurons were treated with β2AR agonists 10 days post plating. They were then harvested 48 hours post-treatment for mRNA extraction and 72 hours post-treatment for protein extraction.
Protein lysis buffer containing 320 mM sucrose, 5 mM NaF, 1 mM Na3VO4, 10 mM Tris (pH 7.4), 1 mM EGTA, and 1 mM EDTA was used for mice brain tissue lysis. 100 μL of cold extraction buffer was added to each sample and homogenized in a dounce homogenizer. […] Total protein concentrations were determined by BCA assay (Thermo Scientific) according to the manufacturer's instructions. Total α-synuclein was quantified using an α-synuclein-specific sandwich ELISA.
as §1

Where [3] appears, read: SK-N-MC cells, 5, 10, 20 μM, four days.

As to `CC(C)NCC(O)COc1cccc2ccccc12` (centres unmarked) [Propranolol, propranolol], in the assay with α-synuclein protein [1] (SK-N-MC cells), the “endogenous α-synuclein protein under β2AR antagonism” value is “increased”. In the assay with SNCA mRNA (SK-N-MC cells), the “endogenous SNCA mRNA under β2AR antagonism” value is “increased”. Moreover, the “effect of co-treatment on clenbuterol's SNCA expression-lowering effects” value in the assay on SNCA mRNA (SK-N-MC cells, co-treatment with clenbuterol) was “blocked clenbuterol's SNCA expression-lowering effects”.

As for `CC(C)(C)NCC(O)c1ccc(O)c(CO)c1` (centres unmarked) [Salbutamol, salbutamol], the α-synuclein protein levels result in the assay on α-synuclein protein [2] is reported as “significantly, but modestly, reduced”. In the assay with SNCA mRNA (SK-N-MC cells, indicated doses, 48 hours), the “SNCA mRNA expression, dose dependence” value is recorded as “lowered SNCA mRNA expression in a dose-dependent manner”.

As to `CC(C)(C)NCC(O)c1cc(Cl)c(N)c(Cl)c1` (centres unmarked) [clenbuterol], in the assay on α-synuclein protein [2], the α-synuclein protein levels entry is recorded as “significantly, but modestly, reduced”. Also, the “α-synuclein protein after 14 days” value with α-synuclein protein [1] (SK-N-MC cells, 10 μM, 14 days) is “lowered”. Also, the “α-synuclein protein levels with increasing concentrations” value with α-synuclein protein [1] (setting [3]) was “decrease”. Further, in the assay with SNCA mRNA (SK-N-MC cells, 10 μM, 14 days), the “SNCA mRNA levels after 14 days” value is on record as “lowered”. Besides, the “α-synuclein mRNA levels with increasing concentrations” value in the assay on SNCA mRNA (setting [3]) is “decrease in α-synuclein mRNA”. Besides, the “relative SNCA mRNA abundance (with H3K27Ac blot)” value in the assay on SNCA mRNA (SK-N-MC cells, vs vehicle-treated cells) is given as “decreased”.

The values above are taken from patent US20210308077A1, “COMBINATIONS INCLUDING BETA-ADRENORECEPTOR AGONISTS FOR TREATMENT OF PARKINSON`S DISEASE AND MOVEMENT DISORDERS” (The Brigham and Women`s Hospital, Inc., priority 2017, published 2021).
